Measured values as given in patent US20240174621A1, “METHYLQUINAZOLINONE DERIVATIVES” (Hoffmann-La Roche Inc., priority 2019, published 2024).
Like-named read-outs stand apart in the source and are kept apart here.

What was measured:
[1] = literature; cited from earlier work
P-gp = P-gp apical efflux ratio, LLC-PK1 cell line transfected with MDR1; type: in vitro ADME
Plasma protein binding = type: in vitro ADME; conditions: mouse, rat, minipig, monkey, human
[2] = CSF Kp,uu measurement for brain penetration, mouse; type: in vivo; conditions: Single oral dose 10 mg/kg
Description: (§1) The CSF Kp,uu is the ratio of the concentration in cerebrospinal fluid (CSF): unbound plasma exposure and Kp,uu values≥1 indicate good brain penetration. For compound Example 1, single oral dose studies in mouse and rat, sequential plasma and CSF concentrations (up to 24 h post dose) were measured by LC-MS/MS to calculate the CSF Kp,uu. For multiple oral dose studies in rat and minipig the plasma and CSF concentrations approximating Tmax (3 h post last dose) were measured by LC-MS/MS and used to calculate the CSF Kp,uu.

[3] = CSF Kp,uu measurement for brain penetration, rat; type: in vivo
Description: as §1

[4] = CSF Kp,uu measurement for brain penetration, minipig; type: in vivo; conditions: Multiple oral dosing @ 300 mg/kg/day (2-week DRF)
Description: as §1

[5] = system: A375 BRAF V600E cancer cells constituvely expressing luciferase; assay: Intracranial implanted A375-Luc; type: in vivo; conditions: daily oral 1, 5 and 20 mg/kg for 2 weeks from day 7; immunocompromised mice
Description: A375 BRAF V600E cancer cells constituvely expressing luciferase were injected intracranially in immunocompromised mice. Treatment with compound Example 1 was initiated at day 7 from the intracranial injection and continued for 2 weeks. The different groups were subject to daily oral administration of 1 mg/kg, 5 mg/kg and 20 mg/kg of Example 1 respectively.

[6] = BCS (biopharmaceutics classification system); type: physicochemical
[7] = system: P-ERK in A375 cells expressing V600E mutated BRAF; assay: cells; type: cell-based; conditions: Homo sapiens, A-375, 1 h, read-out: pERK IC50 (nM) A375
Excerpt: (§2) DMEM no-phenol red medium supplemented with L-glutamine was purchased from (Thermo Fisher Scientific). Fetal bovine serum (FBS) was purchased from VWR. Advanced ERK phospho-T202/Y204 kit—10,000 tests was purchased from Cisbio cat #64AERPEH. A375 and HCT116 cells were originally obtained from ATCC and banked by the Roche repository.
(§3) A375 is a cellular cancer model expressing V600E mutated BRAF and HCT116 a cellular cancer model expressing WT BRAF. […] ERK 1,2 phosphorylation (terminal member of the phosphorylation cascade of the MAPK pathway) is hereafter reported as main readout for the activation status of the MAPK pathway. Prior to the assay, A375 and HCT116 cell lines are maintained in DMEM no-phenol red medium supplemented with 10% fetal bovine serum (FBS). […] Briefly, 8000 cells/well in 12 μl media/well are plated in the 384-well plate and left overnight in the incubator (at 37° C. with 5% CO2-humidified atmosphere), the following day the plate is treated in duplicate with test compounds, dabrafenib and PLX8394 (the latter two as controls) at the following final drug concentrations: 10 μM-3 μM-1 μM all wells are subjected to DMSO normalization and drug incubation occurs for 1 hour. Then, 4 μl of a 4× lysis buffer supplied with the kit are added to the wells, the plate is then centrifuged for 30 second (300 rcf) and incubated on a plate shaker for 1 h at RT.
At the end of the incubation 4 μL/well of advanced P-ERK antibody solution (prepared according to manufacturer's instruction) followed by 4 μL/well of criptate P-ERK antibody solution (prepared according to manufacturer's instruction) (Cisbio cat #64AERPEH) are added to test wells. […]
(§4) The obtained fluorescence values are processed according to the formula Ratio=[…]*10000 then the average of the ratio on the blank is subtracted to all values.
Mean of the normalized points are fitted with sigmoidal curve and IC50 determined.

[8] = system: P-ERK in HCT116 cells expressing WT BRAF; type: cell-based
Excerpt: as §2, with “repository. 384-well microplates were purchased from Greiner Bio-One, 384-well, (With Lid, HiBase, Low volume cat 784-080).” for “repository.”
as §3
At the end of the incubation 4 μL/well of advanced P-ERK antibody solution (prepared according to manufacturer's instruction) followed by 4 μL/well of criptate P-ERK antibody solution (prepared according to manufacturer's instruction) (Cisbio cat #64AERPEH) are added to test wells.
In order to allow proper data normalization control wells non drug treated reported in the following table are always included in each plate (according to manufacturer's instruction):
The plate is then centrifuged at 300 rcf for 30 second, sealed to prevent evaporation and incubated overnight in the dark at room temperature.
The plate is then analyzed and fluorescence emission value collected through a Pherastast FSX (BMG Labtech) apparatus at […].
as §4
Data are normalized in the case of HCT116 cells (BRAF activation,) considering the average of the ratio (blank subtracted) derived by DMSO only treated cells as 0% and by considering the average of the ratio (blank subtracted) derived by dabrafenib treated cells at the concentration which provides the highest signal as 100%. Individual points are fitted with either sigmoidal or bell shape curves, and the percentage of activation compared to maximum dabrafenib-mediated activation is determined. The EC50 is the concentration at which activation equal to 50% of the maximum achieved by dabrafenib is obtained.
The Percentage of Maximum paradox inducing effect from dabrafenib is determined by evaluating the percentage at which the test compound induce its maximum P-ERK signal as percentage of the highest signal produced by dabrafenib within the dose range tested.

[9] = HCT-116 cells; maximum P-ERK signal as percentage of highest dabrafenib signal
[10] = read-out: p-ERK EC50 (nM) conc. (nM) at which the compound induces P-ERK activation of 50% of that induced by dabrafenib (Positive control paradox inducer) HCT-116; HCT-116 cells; not applicable if activation does not reach 50% of dabrafenib maximum

CC(C)(C)c1nc(-c2cccc(NS(=O)(=O)c3c(F)cccc3F)c2F)c(-c2ccnc(N)n2)s1 [Dabrafenib]
Brain permeability [1]: very poor brain permerability

Cn1cnc2ccc(Oc3c(F)ccc(NS(=O)(=O)N4CC[C@@H](F)C4)c3C#N)cc2c1=O [Example 1, (3R)-N-[2-cyano-4-fluoro-3-(3-methyl-4-oxo-quinazolin-6-yl)oxy-phenyl]-3-fluoro-pyrrolidine-1-sulfonamide]
P-gp Apical Efflux ratio, Class (P-gp; LLC-PK1 transfected with MDR1): Low | efflux ratio (P-gp; human, LLC-PK1 transfected with MDR1, presence/absence of P-gp inhibitor): 1.5 | Plasma protein binding, Class (Plasma protein binding): Very high | fraction unbound (Plasma protein binding; plasma): ≤ 0.01 | Mouse CSF Kp,uu, Class [2]: High | Kp uu ([2]; mouse, CSF / unbound plasma): ≥ 1 | Rat CSF Kp,uu, Class ([3]; Multiple oral dosing @ 300 mg/kg/day (2-week DRF)): High | Rat CSF Kp,uu, Class ([3]; Single oral dose 20 mg/kg): High | Kp uu at 3 h ([3]; rat, CSF / unbound plasma, Multiple oral dosing @ 300 mg/kg/day (2-week DRF), 3 h post last dose): ≥ 1 | Kp uu ([3]; rat, CSF / unbound plasma, Single oral dose 20 mg/kg): ≥ 1 | Temporal relationship of plasma and CSF (distribution into CSF) ([3]; single dose rat PK study, up to 24 h post dose): (PK) study and indicated fast and extensive distribution into CSF. | Minipig CSF Kp,uu, Class [4]: High | Kp uu at 3 h ([4]; minipig, CSF / unbound plasma, 3 h post last dose): ≥ 1 | Antitumor activity, intracranial A375-Luc [5]: dose dependent antitumor activity | BCS (biopharmaceutics classific. system) Class [6]: 2

CN(C)S(=O)(=O)Nc1ccc(Cl)c(Oc2ccc3ncn(C)c(=O)c3c2)c1C#N [AR-30]
IC50 [7]: 406 nM | Percentage of Maximum paradox inducing effect from dabrafenib [8, 9]: 59% | EC50 [8, 10]: > 1000 nM

Cn1cnc2ccc(Oc3c(Cl)ccc(NS(=O)(=O)N4CCCC4)c3C#N)cc2c1=O [AR-31]
IC50 [7]: 311 nM | Percentage of Maximum paradox inducing effect from dabrafenib [8, 9]: 51.2% | EC50 ([8]; HCT-116 cells; not applicable if activation does not reach 50% of dabrafenib maximum; read-out: p-ERK EC50 (nM) conc. (nM) at which the compound induces P-ERK activation of 50% of that induced by dabrafenib (Positive control paradox inducer) HCT-116): > 1000 nM

Cn1cnc2ccc(Oc3c(F)ccc(NS(=O)(=O)N4CC[C@H](F)C4)c3C#N)cc2c1=O [Example 2, (3S)-N-[2-cyano-4-fluoro-3-(3-methyl-4-oxo-quinazolin-6-yl)oxy-phenyl]-3-fluoro-pyrrolidine-1-sulfonamide]
Percentage of Maximum paradox inducing effect from dabrafenib [8, 9]: 46.2%

COC(=O)N[C@@H](C)CNc1nccc(-c2cn(C(C)C)nc2-c2cc(Cl)cc(NS(C)(=O)=O)c2F)n1 [Encorafenib]
Brain permeability [1]: very poor brain permerability

CCCS(=O)(=O)Nc1ccc(F)c(C(=O)c2c[nH]c3ncc(-c4ccc(Cl)cc4)cc23)c1F [Vemurafenib]
Brain permeability [1]: very poor brain permerability

CCCS(=O)(=O)Nc1ccc(F)c(Oc2ccc3ncn(C)c(=O)c3c2)c1C#N [AR-25]
IC50 [7]: 1.1 nM | EC50 [8, 10]: 9.6 nM
